{
  "source": "patent US8853264B2",
  "about": "“Use of lignan compounds for treating or preventing inflammatory disease” (Newtree Industry Co., Ltd., priority 2005, dated 2014)",
  "key": {"[1]": {"experiment": "Toxicity in oral administration to rats", "details": "rat, in vivo, read-out: 50% lethality (LD50)", "experimental": "The inventive lignan compound was tested for toxicity in oral administration to rats, and as a result, it was observed that the 50% lethality (LD50) was more than 2,000 mg/kg."}, "CD4 T cells": {"test_system": "CD4 T cells", "experiment": "T cell proliferation by MTT assay", "assay_type": "cell-based, mouse", "details": "antibody (CD3 & CD28) stimulation; macelignan 0.01-100 μg/ml", "from_the_text": "In order to investigate how macelignan directly affects T cells, the cells were stimulated and treated with macelignan at the same time. Wild type and OT-II transgenic mouse CD4 T cells, and antigen presenting cells were used (T cell receptor of CD4 T cells of OT-II transgenic mouse cells is specific for OVA peptide323-339). Wild type CD4 T cells were stimulated with anti-CD3 and anti-CD28 antibodies (BD Pharmigen, San Diego, Calif.), and OT-II transgenic CD4 T cells were stimulated with OVA peptide (Baylor College of Medicine Protein Co-facility). The effect of macelignan was determined by the degree of proliferation of the T cells by MTT assay and by the level of cytokine production. After culturing for 4 days, the level of cytokine production was measured from the supernatant by ELISA. MTT assay was performed using cell proliferation assay kit I (Roche). Cytokines IL-4, IL-17 and IFN-g were detected. ELISA was performed using primary antibody, secondary antibody, streptavidin-alkaline phosphatase (BD Pharmigen) and phosphatase substrate (Sigma-Aldrich, St. Louis, Mo.) according to the manufacturer's instructions."}, "[2]": {"experiment": "Airway hypersensitivity test, allergen-induced asthma", "assay_type": "in vivo, C57BL/6 (B6) male mice", "details": "oral administration in corn oil, every day; vs vehicle group; p<0.05", "experimental": "(§1) 5 μL of allergen, AP (aspergillus protease, 1 mg/mL, Sigma-Aldrich, St. Louis, Mo.) was mixed with 45 μL of OVA (chicken egg ovalbumin, 0.5 mg/mL, Sigma-Aldrich). After 3 intraperitoneal injections with 4-day intervals, asthma was induced by 2 intranasal challenges with 4-day interval. The intranasal challenge was performed under isoflurane inhalational anesthesia. Macelignan dissolved in corn oil was orally administered every day.\nWithin 24 hours after the last allergen challenge, the mouse was anesthetized by intraperitoneal injection of 0.1 mg/g sodium pentobarbital. After tracheal intubation, flexiVent (Scireq®, Montreal, Canada) was connected to maintain stable ventilation. Thereafter, striated muscle was relaxed by intravenous (IV) administration of 0.08 mg/kg pancuronium (Sigma-Aldrich). Following airway hypersensitivity test by IV administration of acetylcholine (Sigma-Aldrich), 1 mL of DPBS (Dulbecco's phosphate buffered saline) was injected twice into the intubation tube using a syringe for bronchioalveolar lavage. […]\nFor airway hypersensitivity test, the mouse was anesthetized using sodium pentobarbital and, after tracheal intubation, flexiVent was connected to maintain stable ventilation. […] Immediately after IV administration of acetylcholine, airway resistance was measured 3 times by snapshot. The mean value was recorded as airway resistance."}, "glycoprotein (mucin)": {"test_system": "glycoprotein (mucin)", "experiment": "Glycoprotein level in BAL fluid (ELISA), asthma model", "assay_type": "in vivo, C57BL/6 (B6) male mice", "details": "oral 400 μg/g and 800 μg/g", "experimental": "as §1\nWithin 24 hours after the last allergen challenge, the mouse was anesthetized by intraperitoneal injection of 0.1 mg/g sodium pentobarbital. After tracheal intubation, flexiVent (Scireq®, Montreal, Canada) was connected to maintain stable ventilation. Thereafter, striated muscle was relaxed by intravenous (IV) administration of 0.08 mg/kg pancuronium (Sigma-Aldrich). […]\nWhen asthma is induced, secretion of mucin increases in the airway. Glycoprotein ELISA was carried out to quantitate mucin in BAL fluid. […] After blocking, followed by treating with biotinylated jacalin and then with streptavidin-alkaline phosphatase, substrate was added and absorbance was measured at 405 nm Glycoprotein level in the BAL fluid was determined by comparing with the standard curve obtained using the standard solution."}},
  "data": [
    {"smiles": "COc1cc(C[C@H](C)[C@H](C)Cc2ccc3c(c2)OCO3)ccc1O", "note": "(single isomer, unassigned) [macelignan]", "values": [
      {"measurement": "LD50", "setting": "[1]", "value": "> 2000", "unit": "mg/kg"},
      {"measurement": "proliferation of T cells", "setting": "CD4 T cells", "value": "no effect"},
      {"measurement": "airway hypersensitivity", "setting": "[2]", "value": "statistically significant decrease of airway hypersensitivity"},
      {"measurement": "glycoprotein level in the BAL fluid", "setting": "glycoprotein (mucin)", "value": "decreased glycoprotein level"}
    ]}
  ]
}
